Data as given in US20130178609A1, “MODULAR CONSTRUCTION OF LIPOPHOSPHOLIPIDS” (Centre National de la Recherche Scientifique - CNRS, priority 2010, published 2013).
“And” between values parts separate entries of the source, which are not always exact repeats. Identical values can stand only once.

Test: Fluorescence excitation/emission maxima and molar absorption of the fluorescent phospholipids in EtOH
Format: physicochemical

CCCCCCCC/C=C\CCCCCCCCOP(=O)(NCc1cn(-c2cc3ccc(O)cc3oc2=O)nn1)OCCCCCCCC/C=C\CCCCCCCC [Compound 4a]
λmax,em: 425 nm and 479 nm
λmax,exc: 349 nm and 412 nm
